Results reported in patent publication US20120035180A1, “PHARMACEUTICAL COMPOSITION FOR TREATING CANCER COMPRISING CHLORIN E6-FOLIC ACID CONJUGATE COMPOUND AND CHITOSAN” (priority 2009, published 2012).

Columns and labels:
[1] = Photophysical parameters (triplet state, intercombinative conversion); type: physicochemical
Protocol: Values of ? and ? were determined after substantially transferring of all molecules of the studied substance in excited triplet state. In such conditions, ΔD=C Δε^Tl, wherein C indicates the molar concentration of the substance in solution, and l indicates the length of the optical way. As the standard to estimate γ, Pd(II)-octa ethyl porphyrin (Pd(II)-OEP) was selected, for which the γ value in benzol was considered as equal to one.

[2] = test system: Hela cells; assay: Accumulation in Hela cells; type: cell-based; details: for concentration in Hela cells: 2×10^−7 M/l, 37° C.
Protocol: The cellular accumulation and the targeted delivery of the photoactive compounds were investigated using Hela cells, which is one of the numerous tumor cell types that overexpress folate receptors.
Cells were cultivated for 3 days in medium 199, and transferred to Hank's solution/medium 199 (9/1). After 3 hours, the cell were collected by trypsin treatment from the substrate and placed in Hank's solution (10^5 κπ/ml). To cell suspensions, chlorin e6 conjugates were added at a concentration of 2×10^−7 M/l, and incubated at 37° C. After 1, 5, 10, 15, and 24 hours, the samples were centrifuged, the pellet was washed with the cooled Hank's solution, and transferred to Hank's solution at a concentration being equal to that in the initial suspension.

[3] = test system: HeLa tumor cells; assay: Cytotoxicity (antiproliferative assay) in the absence of light exposure; type: cell-based; details: 24 hr incubation
Protocol: Cytotoxicity was analyzed, considering the intensity of proliferative processes in cells, photosensitizer concentration, and dose of optical power. For each point, 3 flasks with cell monolayer were used.
The monolayer culture of HeLa tumor cells was chosen and used as the cell.
The culture of HeLa tumor cells was grown in nutrient medium 199 or in nutrient medium containing hemohydrolyzate supplemented with 10% fetal bovine serum and […] of kanamycin.
On day 4 after the cell culture was inoculated in the flasks (100,000 cells per 2.0 ml of nutrient medium), the photosensitizer was added at a concentration of 1, 2.5, 5.0, 10.0, 20.0, or 30.0 mg/ml.
Flasks with light-protective cover (dark cytotoxicity) were incubated at 37.5° C. for 1 hour. The cells were washed with Hank's solution 4 times. 2.0 ml of fresh nutrient medium were added, and the cells were irradiated at the temperature of melting ice for 5, 10, 15 or 20 mins by the light flux of a “METALAZ” laser medical device (wavelength: 627.8 nm, 578.2 or 510.6 nm) or “LD 680-2000” (wavelength: 670-690 nm), depending on the wavelength of maximum spectral absorption of the studied photosensitizer, at a dose of 40 J/cm^2. After 20-24 hours, the number of tumor cell was counted in Goriaev's chamber.

[4] = test system: HeLa cell culture; assay: Phototoxicity (photodynamic activity), 3.5 h incubation, 3.3 joule/cm^2; type: cell-based; set-up: number of HELA cells (relative to the control): unit not given here; details: for number of HELA cells (relative to the control): incubation 3.5 hours
Protocol: To examine the photodynamic effects of a photosensitizer on a HeLa cell culture, the photosensitizer solution was added to the nutrient media at a final concentration of 0.1, 0.5, 1.0, 5.0 or 10 mcg/ml on day 3 after transplanting the cell culture into flasks. The flasks were wrapped with a light protecting cover, and incubated at 37° C. for 3.5 hours. Then, the cells were washed with Hank's solution, and exposed on ice by a laser medical device “LD 680-2000” (wavelength: 670-690 nm) at a dose of 3.3 joule/cm^2. After 20-24 hours, the available cell monolayer was dispersed using a 0.02%-Versene solution, and the number of tumor cells was calculated in Goriaev's chamber. For each point, 3 flasks were used.

[5] = test system: Hela cells; assay: Phototoxicity, 24 h incubation, 1.5-15 joule/cm^2; type: cell-based; details: 670-690 nm
Protocol: In other experiment, the cells were incubated with photosensitizers at 37° C. for 24 hours, and irradiated by exposed on ice by a laser medical device “LD 680-2000” (wavelength of 670-690 nm) in a dose of 1.5-15 joule/cm^2.

[6] = test system: sarcoma M-1; assay: Growth dynamics and growth inhibition of sarcoma M-1 after PDT; type: in vivo, rats
Protocol: The power density was 0.51 W/cm^2, the output power was 0.4 W, and the spot light diameter was 1 cm. […] Monitoring over radiating power was conducted by a universal power meter included in the laser device “ ? 680-2000”.

[γ-(6-aminohexyl)folic acid]-chlorin e6 [chlorin e6 conjugate]
τt (lifetime of excited triplet state, oxygen saturated) ([1]; H2O, pH 8.1): 2.5 μs
τt^0 (lifetime of excited triplet state, deoxygenated) ([1]; H2O, pH 8.1): 170 μs
τt (lifetime of excited triplet state, oxygen saturated) ([1]; HSA, H2O, pH 8.1): 14.7 μs
τt^0 (lifetime of excited triplet state, deoxygenated) ([1]; HSA, H2O, pH 8.1): 700 μs
τt (lifetime of excited triplet state, oxygen saturated) ([1]; Liposomes, H2O, pH 8.1): 1.4 μs
τt^0 (lifetime of excited triplet state, deoxygenated) ([1]; Liposomes, H2O, pH 8.1): 70 μs
γ (photoresponse of intercombinative conversion) ([1]; Liposomes, H2O, pH 8.1, standard Pd(II)-OEP): 078
τt (lifetime of excited triplet state, oxygen saturated) ([1]; Pyridine): 0.3 μs
τt^0 (lifetime of excited triplet state, deoxygenated) ([1]; Pyridine): 140 μs
τt (lifetime of excited triplet state, oxygen saturated) ([1]; Triton X-100): 2.6 μs
τt^0 (lifetime of excited triplet state, deoxygenated) ([1]; Triton X-100): 230 μs
concentration in Hela cells ([2]; incubation time 1 hours): 0.40 relative units/10^4cl.
concentration in Hela cells ([2]; incubation time 5 hours): 1.80 relative units/10^4cl.
concentration in Hela cells ([2]; incubation time 10 hours): 2.50 relative units/10^4cl.
concentration in Hela cells ([2]; incubation time 15 hours): 12.5 relative units/10^4cl.
concentration in Hela cells ([2]; incubation time 24 hours): 15.0 relative units/10^4cl.
kinetic of binding with cells ([2]; Hela cells): increases linearly over 20 hours
cell survival rates [3]: about 90%
inhibition of proliferation of Hela cells ([4]; concentration of 5-10 mcg/ml, photoexposure): fully inhibited
number of HELA cells (relative to the control) ([4]; photoexposure 3.3 joule/cm^2, conc. 0.1 mcg/ml): 65.1
number of HELA cells (relative to the control) ([4]; photoexposure 3.3 joule/cm^2, conc. 0.5 mcg/ml): 42.3
number of HELA cells (relative to the control) ([4]; photoexposure 3.3 joule/cm^2, conc. 1.0 mcg/ml): 12.6
number of HELA cells (relative to the control) ([4]; photoexposure 3.3 joule/cm^2, conc. 5.0 mcg/ml): 0.1
phototoxicity / photosensitivity in survival test [5]: improved the photosensitivity
Growth inhibition rate of sarcoma M-1 of rats in volume to the control ([6]; 2.5 mg/100 g + 100 J/cm^2 for 1 h, day 7): 47.5
Growth inhibition rate of sarcoma M-1 of rats in volume to the control ([6]; 2.5 mg/100 g + 100 J/cm^2 for 1 h, day 10): 79.4
Growth inhibition rate of sarcoma M-1 of rats in volume to the control ([6]; 2.5 mg/100 g + 100 J/cm^2 for 1 h, day 12): 87.6
Growth inhibition rate of sarcoma M-1 of rats in volume to the control ([6]; 2.5 mg/100 g + 100 J/cm^2 for 1 h, day 14): 89.8
Growth inhibition rate of sarcoma M-1 of rats in volume to the control ([6]; 2.5 mg/100 g + 100 J/cm^2 for 1 h, day 17): 94.8
Growth inhibition rate of sarcoma M-1 of rats in volume to the control ([6]; 2.5 mg/100 g + 100 J/cm^2 for 1 h, day 19): 94.1
Growth inhibition rate of sarcoma M-1 of rats in volume to the control ([6]; 2.5 mg/100 g + 100 J/cm^2 for 1 h, day 21): 94.2
Growth inhibition rate of sarcoma M-1 of rats in volume to the control ([6]; 2.5 mg/100 g + 100 J/cm^2 for 1 h, day 24): 93.6
Growth dynamics of sarcoma M-1 (volume) ([6]; 2.5 mg/kg + 100 J/cm^2 for 1 h, day 7 after tumor transplant): 0.25 ± 0.03 cm^3
Growth dynamics of sarcoma M-1 (volume) ([6]; 2.5 mg/kg + 100 J/cm^2 for 1 h, day 10 after tumor transplant): 0.28 ± 0.03 cm^3
Growth dynamics of sarcoma M-1 (volume) ([6]; 2.5 mg/kg + 100 J/cm^2 for 1 h, day 12 after tumor transplant): 0.34 ± 0.06 cm^3
Growth dynamics of sarcoma M-1 (volume) ([6]; 2.5 mg/kg + 100 J/cm^2 for 1 h, day 14 after tumor transplant): 0.41 ± 0.09 cm^3
Growth dynamics of sarcoma M-1 (volume) ([6]; 2.5 mg/kg + 100 J/cm^2 for 1 h, day 17 after tumor transplant): 0.46 ± 0.11 cm^3
Growth dynamics of sarcoma M-1 (volume) ([6]; 2.5 mg/kg + 100 J/cm^2 for 1 h, day 19 after tumor transplant): 0.69 ± 0.27 cm^3
Growth dynamics of sarcoma M-1 (volume) ([6]; 2.5 mg/kg + 100 J/cm^2 for 1 h, day 21 after tumor transplant): 0.96 ± 0.38 cm^3
Growth dynamics of sarcoma M-1 (volume) ([6]; 2.5 mg/kg + 100 J/cm^2 for 1 h, day 24 after tumor transplant): 1.19 ± 0.48 cm^3
Growth inhibition rate of sarcoma M-1 of rats in volume to the control ([6]; 5 mg/100 g + 100 J/cm^2 for 1 h, day 7): 36.9
Growth inhibition rate of sarcoma M-1 of rats in volume to the control ([6]; 5 mg/100 g + 100 J/cm^2 for 1 h, day 10): 77.9
Growth inhibition rate of sarcoma M-1 of rats in volume to the control ([6]; 5 mg/100 g + 100 J/cm^2 for 1 h, day 12): 89.1
Growth inhibition rate of sarcoma M-1 of rats in volume to the control ([6]; 5 mg/100 g + 100 J/cm^2 for 1 h, day 14): 92.6
Growth inhibition rate of sarcoma M-1 of rats in volume to the control ([6]; 5 mg/100 g + 100 J/cm^2 for 1 h, day 17): 95.8
Growth inhibition rate of sarcoma M-1 of rats in volume to the control ([6]; 5 mg/100 g + 100 J/cm^2 for 1 h, day 19): 95.9
Growth inhibition rate of sarcoma M-1 of rats in volume to the control ([6]; 5 mg/100 g + 100 J/cm^2 for 1 h, day 21): 96.9
Growth inhibition rate of sarcoma M-1 of rats in volume to the control ([6]; 5 mg/100 g + 100 J/cm^2 for 1 h, day 24): 97.1
Growth dynamics of sarcoma M-1 (volume) ([6]; 5 mg/kg + 100 J/cm^2 for 1 h, day 7 after tumor transplant): 0.29 ± 0.02 cm^3
Growth dynamics of sarcoma M-1 (volume) ([6]; 5 mg/kg + 100 J/cm^2 for 1 h, day 10 after tumor transplant): 0.300 ± .03 cm^3
Growth dynamics of sarcoma M-1 (volume) ([6]; 5 mg/kg + 100 J/cm^2 for 1 h, day 12 after tumor transplant): 0.30 ± 0.03 cm^3
Growth dynamics of sarcoma M-1 (volume) ([6]; 5 mg/kg + 100 J/cm^2 for 1 h, day 14 after tumor transplant): 0.30 ± 0.03 cm^3
Growth dynamics of sarcoma M-1 (volume) ([6]; 5 mg/kg + 100 J/cm^2 for 1 h, day 17 after tumor transplant): 0.37 ± 0.05 cm^3
Growth dynamics of sarcoma M-1 (volume) ([6]; 5 mg/kg + 100 J/cm^2 for 1 h, day 19 after tumor transplant): 0.47 ± 0.11 cm^3
Growth dynamics of sarcoma M-1 (volume) ([6]; 5 mg/kg + 100 J/cm^2 for 1 h, day 21 after tumor transplant): 0.50 ± 0.14 cm^3
Growth dynamics of sarcoma M-1 (volume) ([6]; 5 mg/kg + 100 J/cm^2 for 1 h, day 24 after tumor transplant): 0.54 ± 0.17 cm^3
Growth inhibition rate of sarcoma M-1 of rats in volume to the control ([6]; 10 mg/100 g + 100 J/cm^2 for 1 h, day 7): 56.5
Growth inhibition rate of sarcoma M-1 of rats in volume to the control ([6]; 10 mg/100 g + 100 J/cm^2 for 1 h, day 10): 86.0
Growth inhibition rate of sarcoma M-1 of rats in volume to the control ([6]; 10 mg/100 g + 100 J/cm^2 for 1 h, day 12): 93.8
Growth inhibition rate of sarcoma M-1 of rats in volume to the control ([6]; 10 mg/100 g + 100 J/cm^2 for 1 h, day 14): 95.8
Growth inhibition rate of sarcoma M-1 of rats in volume to the control ([6]; 10 mg/100 g + 100 J/cm^2 for 1 h, day 17): 98.1
Growth inhibition rate of sarcoma M-1 of rats in volume to the control ([6]; 10 mg/100 g + 100 J/cm^2 for 1 h, day 19): 95.2
Growth inhibition rate of sarcoma M-1 of rats in volume to the control ([6]; 10 mg/100 g + 100 J/cm^2 for 1 h, day 21): 98.8
Growth inhibition rate of sarcoma M-1 of rats in volume to the control ([6]; 10 mg/100 g + 100 J/cm^2 for 1 h, day 24): 98.9
Growth dynamics of sarcoma M-1 (volume) ([6]; 10 mg/kg + 100 J/cm^2 for 1 h, day 7 after tumor transplant): 0.20 ± 0.03 cm^3
Growth dynamics of sarcoma M-1 (volume) ([6]; 10 mg/kg + 100 J/cm^2 for 1 h, day 10 after tumor transplant): 0.19 ± 0.04 cm^3
Growth dynamics of sarcoma M-1 (volume) ([6]; 10 mg/kg + 100 J/cm^2 for 1 h, day 12 after tumor transplant): 0.17 ± 0.03 cm^3
Growth dynamics of sarcoma M-1 (volume) ([6]; 10 mg/kg + 100 J/cm^2 for 1 h, day 14 after tumor transplant): 0.17 ± 0.03 cm^3
Growth dynamics of sarcoma M-1 (volume) ([6]; 10 mg/kg + 100 J/cm^2 for 1 h, day 17 after tumor transplant): 0.17 ± 0.03 cm^3
Growth dynamics of sarcoma M-1 (volume) ([6]; 10 mg/kg + 100 J/cm^2 for 1 h, day 19 after tumor transplant): 0.17 ± 0.03 cm^3
Growth dynamics of sarcoma M-1 (volume) ([6]; 10 mg/kg + 100 J/cm^2 for 1 h, day 21 after tumor transplant): 0.20 ± 0.03 cm^3
Growth dynamics of sarcoma M-1 (volume) ([6]; 10 mg/kg + 100 J/cm^2 for 1 h, day 24 after tumor transplant): 0.20 ± 0.03 cm^3
